Measured values from patent US9096581B2, “Fluoroethyl thiamine or salts thereof and application thereof in preparation of anticoccidial drugs” (GUANGZHOU ORIGMOL FEED-ADDITIVE CO., LTD, priority 2012, dated 2015).
Counter-ions that a name gives are not always drawn.

Test system: Eimeria tenella GD strains
Test: Anticoccidial dose research in chickens infected with Eimeria tenella GD (Embodiment 2)
Format: in vivo
Design: oocyst value: scale not given here
Settings: for number of oocysts in cecum / average weight gain: 7th day; for lesion value: cecum, 7 days after infecting, scale 0-40; for survival rate / average weight gain / bloody feces scoring: chickens; for bloody feces scoring: 5 days after infecting, score 0-4; for oocyst value: converted per Table 2; for relative weight gain rate: vs non-infected non-drug control
From the text: 1-day-old Lingnan yellow chickens, purchased from Poultry Research Unit, Bureau of Animal Husbandry, Guangdong Academy of Agricultural Sciences, bred under coccidium-free environment, and subjected to experiment after no coccidium oocyst is found in feces through microscopic examination when the chickens are 14 days old. Perfect compound feed for chickens: prepared by Huizhou Yuantai Feed Co. Ltd., and containing no antibacterial or anticoccidial additive.
Eimeria tenella GD strains, having no resistance to various anticoccidial drugs. Breeding and amplifying in chickens before the experiment, collecting fresh oocysts, sporulating, and preserving at 4° C. for later use.
Weighing the 14-day-old experiment chickens one by one, rejecting emaciated or overweighted chickens, selecting healthy chickens of which the individual body weight difference is within 20 g, and dividing to 9 groups with 20 chickens in each group. Groups 1 and 2 are respectively a non-drug-applied and non-coccidium-killed control group and a coccidium-infected and non-drug-applied control group, and Groups 3-9 are experiment groups applied with different doses of the fluoroethyl thiamine hydrochloride according to Table 1. Adding different doses of drugs to feeds and mixing uniformly on the day of experiment grouping, enabling the chickens to freely take in the feeds, and feeding the chickens until the experiment ends.
Except the non-coccidium-infected and non-drug-applied control group (Group 1), giving each experiment chicken in each experiment group with 2.5×10^5 eimeria tenella sporulated oocysts via the crop on the next day of the grouping day. During experiment, observing and recording the spirit, appetite, bloody feces situation, death count and the like of the chickens every day. Performing bloody feces scoring on the chickens in each group 5 days after infecting. On the 7th day, respectively weighing all the chickens in each group, then autopsying them, observing cecum lesions and counting the oocysts in the cecum.
2.3.1 Bloody feces scoring: according to the method in the references: 0 point, no bloody feces, 1 point, less than 25% of bloody feces; 2 points, 25%-50% of bloody feces; 3 points, 50%-75% of bloody feces; 4 points, more than 75% of bloody feces.
2.3.2 Weight gain: respectively weighing each chicken when the experiment starts and ends, and calculating the average weight gain and relative weight gain rate. The relative weight gain rate=(the average weight gain in the experiment groups/the average weight gain in the non-infected and non-drug-applied control group)×100%.
2.3.3 Survival rate: recording the number of dead chickens of each group, autopsying to determine the death cause, and calculating the survival rate. The survival rate=(the total number of the chickens in the experiment groups−the number of the chickens dying of coccidium infection during the experiment)/the total number of the chickens in the experiment groups×100%.
2.3.4 Lesion standard: killing the chickens 7 days after infecting, performing cecum lesion scoring according to the lesion scoring of Johnson and Reid (1970), and converting lesion points to lesion values.
lesion scoring (taking the serious side if the two sides of the cecum are inconsistent in lesion): 0 point, no macroscopic lesion; 1 point, a small amount of scattered petechiae on the cecum wall, no incrassation on the cecum wall, normal contents; 2 points, a large amount of lesion, obviously bloody contents in the cecum, slight incrassation on the cecum wall, normal contents; 3 points, a large a mount of blood or intestinal core (blood clot or gray caseous banana-shaped lumps) in the cecum, obvious incrassation on the cecum wall, a small amount of feces in the cecum; 4 points, cecum swelling caused by filling of a large amount of blood or intestinal core with or without feces in the intestinal core. Recording the dead chicken lesion as 4 points as well. […]

CCc1ncc(C[n+]2csc(CCF)c2C)c(N)n1 [fluoroethyl thiamine hydrochloride, 3-[(4-amino-2-ethyl-5-pyrimidyl)-methylene]-5-(2-fluoroethyl)-4-methyl thiazole chloride hydrochloride]
anticoccidial index (ACI) (10 ppm in feed): 136.7 | number of oocysts in cecum (10 ppm in feed): 2.965 ×10^6/chicken | lesion value (10 ppm in feed): 24.5 | survival rate (10 ppm in feed): 90% | average weight gain (10 ppm in feed): 135.7 g/chicken | bloody feces scoring (10 ppm in feed): 2 | oocyst value (10 ppm in feed): 10 | relative weight gain rate (10 ppm in feed): 81.2% | anticoccidial index (ACI) (25 ppm in feed): 144.6 | number of oocysts in cecum (25 ppm in feed): 2.325 ×10^6/chicken | lesion value (25 ppm in feed): 18.8 | survival rate (25 ppm in feed): 90% | average weight gain (25 ppm in feed): 139.5 g/chicken | bloody feces scoring (25 ppm in feed): 2 | oocyst value (25 ppm in feed): 10 | relative weight gain rate (25 ppm in feed): 83.4% | anticoccidial index (ACI) (50 ppm in feed): 165.5 | drug efficiency level judged from the anticoccidial index (50 ppm in feed): intermediate-efficiency anticoccidial drugs (intermediate-efficiency anticoccidial drugs if 160≦ACI<180) | number of oocysts in cecum (50 ppm in feed): 3.65 ×10^6/chicken | lesion value (50 ppm in feed): 11.2 | survival rate (50 ppm in feed): 100% | average weight gain (50 ppm in feed): 144.9 g/chicken | bloody feces scoring (50 ppm in feed): 1 | oocyst value (50 ppm in feed): 10 | relative weight gain rate (50 ppm in feed): 86.7% | anticoccidial index (ACI) (75 ppm in feed): 176.4 | drug efficiency level judged from the anticoccidial index (75 ppm in feed): intermediate-efficiency anticoccidial drugs (intermediate-efficiency anticoccidial drugs if 160≦ACI<180) | number of oocysts in cecum (75 ppm in feed): 2.15 ×10^6/chicken | lesion value (75 ppm in feed): 8.5 | survival rate (75 ppm in feed): 100% | average weight gain (75 ppm in feed): 158.7 g/chicken | bloody feces scoring (75 ppm in feed): 0 | oocyst value (75 ppm in feed): 10 | relative weight gain rate (75 ppm in feed): 94.9% | anticoccidial index (ACI) (100 ppm in feed): 195.9 | drug efficiency level judged from the anticoccidial index (100 ppm in feed): high-efficiency anticoccidial drugs (high-efficiency anticoccidial drugs if ACI≧180) | number of oocysts in cecum (100 ppm in feed): 0.47 ×10^6/chicken | lesion value (100 ppm in feed): 0 | survival rate (100 ppm in feed): 100% | average weight gain (100 ppm in feed): 162.0 g/chicken | bloody feces scoring (100 ppm in feed): 0 | oocyst value (100 ppm in feed): 1 | relative weight gain rate (100 ppm in feed): 96.9% | anticoccidial index (ACI) (150 ppm in feed): 201.4 | drug efficiency level judged from the anticoccidial index (150 ppm in feed): high-efficiency anticoccidial drugs (high-efficiency anticoccidial drugs if ACI≧180) | number of oocysts in cecum (150 ppm in feed): 0.16 ×10^6/chicken | lesion value (150 ppm in feed): 0 | survival rate (150 ppm in feed): 100% | average weight gain (150 ppm in feed): 171.2 g/chicken | bloody feces scoring (150 ppm in feed): 0 | oocyst value (150 ppm in feed): 1 | relative weight gain rate (150 ppm in feed): 102.4% | anticoccidial index (ACI) (200 ppm in feed): 200.8 | drug efficiency level judged from the anticoccidial index (200 ppm in feed): high-efficiency anticoccidial drugs (high-efficiency anticoccidial drugs if ACI≧180) | number of oocysts in cecum (200 ppm in feed): 0 ×10^6/chicken | lesion value (200 ppm in feed): 0 | survival rate (200 ppm in feed): 100% | average weight gain (200 ppm in feed): 168.5 g/chicken | bloody feces scoring (200 ppm in feed): 0 | oocyst value (200 ppm in feed): 0 | relative weight gain rate (200 ppm in feed): 100.8%
